Assay results as given in patent US6737383B1, “Herbicidal oxadiazolidines” (priority 1999, dated 2004).

How the values were obtained:
bamyardgrass = test: Test B flood test barnyardgrass; type: in vivo, Echinochloa crus-galli
Outline: (§1)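 Each value is a visual injury score relative to controls, with 10 meaning complete control and 0 no effect. Evaluation took place twelve to sixteen days after the 2-leaf-stage plants were treated and kept in the greenhouse.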

wild oat = test: Test B pre/postemergence wild oat; type: in vivo, Avena fatua; details: for Wild oats plant response rating: scale of 0 to 10 where 0 is no effect and 10 is complete control
Outline: (§2)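 Response is a visual 0-to-10 score relative to untreated plants, where 0 means no effect and 10 means complete control, taken twelve to sixteen days after application. Treatments went onto soil at planting and onto foliage of 1- to 4-leaf plants, using a surfactant-containing non-phytotoxic solvent.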

rape = test: Test B pre/postemergence rape; type: in vivo, Brassica napus; details: for Rape plant response rating: scale of 0 to 10 where 0 is no effect and 10 is complete control
Outline: as §2

corn = test: Test B pre/postemergence corn; type: in vivo, Zea mays; details: for Corn plant response rating: scale of 0 to 10 where 0 is no effect and 10 is complete control
Outline: as §2

pigweed = test: Test B pre/postemergence pigweed; type: in vivo, Amaranthus retroflexus; details: for Redroot pigweed plant response rating: scale of 0 to 10 where 0 is no effect and 10 is complete control
Outline: as §2

sugar beet = test: Test B pre/postemergence sugar beet; type: in vivo, Beta vulgaris; details: for Sugarbeets plant response rating: scale of 0 to 10 where 0 is no effect and 10 is complete control
Outline: as §2

rice = test: Test B flood test rice; type: in vivo, Oryza sativa
Outline: as §1

duck salad = test: Test B flood test duck salad; type: in vivo, Heteranthera limosa
Outline: as §1

cocklebur = test: Test B pre/postemergence cocklebur; type: in vivo, Xanthium strumarium; details: for Cocklebur plant response rating: scale of 0 to 10 where 0 is no effect and 10 is complete control
Outline: as §2

morningglory = test: Test B pre/postemergence morningglory; type: in vivo, Ipomoea hederacea; details: for Morningglory plant response rating: scale of 0 to 10 where 0 is no effect and 10 is complete control
Outline: as §2

velvetleaf = test: Test B pre/postemergence velvetleaf; type: in vivo, Abutilon theophrasti; details: for Velvetleaf plant response rating: scale of 0 to 10 where 0 is no effect and 10 is complete control
Outline: as §2

smallflower flatsedge = test: Test B flood test smallflower flatsedge; type: in vivo, Cyperus difformis
Outline: as §1

crabgrass = test: Test B pre/postemergence crabgrass; type: in vivo, Digitaria sanguinalis; details: for Crabgrass plant response rating: scale of 0 to 10 where 0 is no effect and 10 is complete control
Outline: as §2

surinam grass = test: Test B pre/postemergence surinam grass; type: in vivo, Brachiaria decumbens; details: for B. signalgrass plant response rating: scale of 0 to 10 where 0 is no effect and 10 is complete control
Outline: as §2

soybean = test: Test B pre/postemergence soybean; type: in vivo, Glycine max; details: for Soybean plant response rating: scale of 0 to 10 where 0 is no effect and 10 is complete control
Outline: as §2

bedstraw = test: Test B pre/postemergence bedstraw; type: in vivo, Galium aparine; details: for Bedstraw plant response rating: scale of 0 to 10 where 0 is no effect and 10 is complete control
Outline: as §2

[1] = Rate 62 g/ha, flood test species, Pre-emergence, visual evaluation after twelve to sixteen days
[2] = Rate 125 g/ha, under heading Pre-emergence, flood test species, visual evaluation after twelve to sixteen days
[3] = Rate 250 g/ha, Pre-emergence, flood-test species, scale 0 to 10, 0 is no effect, 10 is complete control
[4] = Rate 500 g/ha, Pre-emergence, flood test species, scale 0 to 10 (0 no effect, 10 complete control)
[5] = Postemergence, Rate 125 g/ha, scale 0 to 10, 0 is no effect, 10 is complete control
[6] = Postemergence, Rate 250 g/ha, scale 0 to 10, 0 is no effect, 10 is complete control
[7] = Preemergence, Rate 62 g/ha, scale 0 to 10 (0 no effect, 10 complete control)
[8] = Rate 500 g/ha, Postemergence, scale 0 to 10, 0 no effect, 10 complete control

CCOc1nc(C(F)(F)F)c(Cn2c(=O)on(C(=O)N(c3ccc(F)cc3)C(C)C)c2=O)s1 [Compound 381]
Plant response rating, Barnyardgrass (0 to 10 scale, 0 is no effect, 10 is complete control) (bamyardgrass; [1]): 0 | Barnyardgrass plant response rating (0 to 10 scale, 0 is no effect, 10 is complete control) (bamyardgrass; [2]): 0 | Barnyardgrass plant response rating (bamyardgrass; [3]): 0 | Barnyardgrass plant response rating (bamyardgrass; [4]): 0 | Plant response rating, Wild oats (wild oat; [5]): 0 | Plant response rating, Wild oats (wild oat; [6]): 0 | Plant response rating, Wild oats (wild oat; [7]): 0 | Wild oats plant response rating (0 to 10 scale) (wild oat; Preemergence, Rate 125 g/ha): 0 | Wild oats plant response rating (wild oat; Preemergence, Rate 250 g/ha): 0 | Wild oats plant response rating (wild oat; Preemergence, Rate 500 g/ha): 0 | Wild oats plant response rating (wild oat; Rate 62 g/ha, Postemergence): 0 | Plant response rating, Wild oats (wild oat; [8]): 0 | Plant response rating, Rape (rape; [5]): 0 | Plant response rating, Rape (rape; [6]): 0 | Plant response rating, Rape (rape; [7]): 0 | Rape plant response rating (0 to 10 scale) (rape; Preemergence, Rate 125 g/ha): 0 | Rape plant response rating (rape; Preemergence, Rate 250 g/ha): 0 | Rape plant response rating (rape; Preemergence, Rate 500 g/ha): 0 | Rape plant response rating (rape; Rate 62 g/ha, Postemergence): 0 | Plant response rating, Rape (rape; [8]): 6 | Plant response rating, Corn (corn; [5]): 0 | Plant response rating, Corn (corn; [6]): 0 | Plant response rating, Corn (corn; [7]): 0 | Corn plant response rating (0 to 10 scale) (corn; Preemergence, Rate 125 g/ha): 0 | Corn plant response rating (corn; Preemergence, Rate 250 g/ha): 0 | Corn plant response rating (corn; Preemergence, Rate 500 g/ha): 2 | Corn plant response rating (corn; Rate 62 g/ha, Postemergence): 0 | Plant response rating, Corn (corn; [8]): 0 | Plant response rating, Redroot pigweed (pigweed; [5]): 0 | Plant response rating, Redroot pigweed (pigweed; [6]): 0 | Plant response rating, Redroot pigweed (pigweed; [7]): 0 | Redroot pigweed plant response rating (0 to 10 scale) (pigweed; Preemergence, Rate 125 g/ha): 0 | Redroot pigweed plant response rating (pigweed; Preemergence, Rate 250 g/ha): 0 | Redroot pigweed plant response rating (pigweed; Preemergence, Rate 500 g/ha): 0 | Redroot pigweed plant response rating (pigweed; Rate 62 g/ha, Postemergence): 0 | Plant response rating, Redroot pigweed (pigweed; [8]): 2 | Plant response rating, Sugarbeets (sugar beet; [5]): 0 | Plant response rating, Sugarbeets (sugar beet; [6]): 0 | Plant response rating, Sugarbeets (sugar beet; [7]): 0 | Sugarbeets plant response rating (0 to 10 scale) (sugar beet; Preemergence, Rate 125 g/ha): 0 | Sugarbeets plant response rating (sugar beet; Preemergence, Rate 250 g/ha): 0 | Sugarbeets plant response rating (sugar beet; Preemergence, Rate 500 g/ha): 0 | Sugarbeets plant response rating (sugar beet; Rate 62 g/ha, Postemergence): 0 | Plant response rating, Sugarbeets (sugar beet; [8]): 0 | Plant response rating, Rice (0 to 10 scale, 0 is no effect, 10 is complete control) (rice; [1]): 0 | Rice plant response rating (0 to 10 scale, 0 is no effect, 10 is complete control) (rice; [2]): 0 | Rice plant response rating (rice; [3]): 0 | Rice plant response rating (rice; [4]): 0 | Plant response rating, Ducksalad (0 to 10 scale, 0 is no effect, 10 is complete control) (duck salad; [1]): 0 | Ducksalad plant response rating (0 to 10 scale, 0 is no effect, 10 is complete control) (duck salad; [2]): 0 | Ducksalad plant response rating (duck salad; [3]): 0 | Ducksalad plant response rating (duck salad; [4]): 0 | Plant response rating, Cocklebur (cocklebur; [5]): 0 | Plant response rating, Cocklebur (cocklebur; [6]): 0 | Plant response rating, Cocklebur (cocklebur; [7]): 0 | Cocklebur plant response rating (0 to 10 scale) (cocklebur; Preemergence, Rate 125 g/ha): 0 | Cocklebur plant response rating (cocklebur; Preemergence, Rate 250 g/ha): 0 | Cocklebur plant response rating (cocklebur; Preemergence, Rate 500 g/ha): 0 | Cocklebur plant response rating (cocklebur; Rate 62 g/ha, Postemergence): 0 | Plant response rating, Cocklebur (cocklebur; [8]): 0 | Plant response rating, Morningglory (morningglory; [5]): 2 | Plant response rating, Morningglory (morningglory; [6]): 2 | Plant response rating, Morningglory (morningglory; [7]): 0 | Morningglory plant response rating (0 to 10 scale) (morningglory; Preemergence, Rate 125 g/ha): 0 | Morningglory plant response rating (morningglory; Preemergence, Rate 250 g/ha): 0 | Morningglory plant response rating (morningglory; Preemergence, Rate 500 g/ha): 0 | Morningglory plant response rating (morningglory; Rate 62 g/ha, Postemergence): 2 | Plant response rating, Morningglory (morningglory; [8]): 7 | Plant response rating, Velvetleaf (velvetleaf; [5]): 0 | Plant response rating, Velvetleaf (velvetleaf; [6]): 0 | Plant response rating, Velvetleaf (velvetleaf; [7]): 0 | Velvetleaf plant response rating (0 to 10 scale) (velvetleaf; Preemergence, Rate 125 g/ha): 0 | Velvetleaf plant response rating (velvetleaf; Preemergence, Rate 250 g/ha): 0 | Velvetleaf plant response rating (velvetleaf; Preemergence, Rate 500 g/ha): 0 | Velvetleaf plant response rating (velvetleaf; Rate 62 g/ha, Postemergence): 0 | Plant response rating, Velvetleaf (velvetleaf; [8]): 0 | Plant response rating, S. Flatsedge (0 to 10 scale, 0 is no effect, 10 is complete control) (smallflower flatsedge; [1]): 0 | S. Flatsedge plant response rating (0 to 10 scale, 0 is no effect, 10 is complete control) (smallflower flatsedge; [2]): 0 | S. Flatsedge plant response rating (smallflower flatsedge; [3]): 0 | S. Flatsedge plant response rating (smallflower flatsedge; [4]): 0 | Plant response rating, Crabgrass (crabgrass; [5]): 0 | Plant response rating, Crabgrass (crabgrass; [6]): 0 | Plant response rating, Crabgrass (crabgrass; [7]): 0 | Crabgrass plant response rating (0 to 10 scale) (crabgrass; Preemergence, Rate 125 g/ha): 0 | Crabgrass plant response rating (crabgrass; Preemergence, Rate 250 g/ha): 3 | Crabgrass plant response rating (crabgrass; Preemergence, Rate 500 g/ha): 9 | Crabgrass plant response rating (crabgrass; Rate 62 g/ha, Postemergence): 0 | Plant response rating, Crabgrass (crabgrass; [8]): 0 | Plant response rating, B. signalgrass (surinam grass; [5]): 0 | Plant response rating, B. signalgrass (surinam grass; [6]): 0 | Plant response rating, B. signalgrass (surinam grass; [7]): 0 | B. signalgrass plant response rating (0 to 10 scale, 0 is no effect, 10 is complete control) (surinam grass; Preemergence, Rate 125 g/ha): 0 | B. signalgrass plant response rating (surinam grass; Preemergence, Rate 250 g/ha): 0 | B. signalgrass plant response rating (surinam grass; Preemergence, Rate 500 g/ha): 0 | B. signalgrass plant response rating (surinam grass; Rate 62 g/ha, Postemergence): 0 | Plant response rating, B. signalgrass (surinam grass; [8]): 0 | Plant response rating, Soybean (soybean; [5]): 2 | Plant response rating, Soybean (soybean; [6]): 2 | Plant response rating, Soybean (soybean; [7]): 0 | Soybean plant response rating (0 to 10 scale) (soybean; Preemergence, Rate 125 g/ha): 0 | Soybean plant response rating (soybean; Preemergence, Rate 250 g/ha): 0 | Soybean plant response rating (soybean; Preemergence, Rate 500 g/ha): 0 | Soybean plant response rating (soybean; Rate 62 g/ha, Postemergence): 1 | Plant response rating, Soybean (soybean; [8]): 2 | Plant response rating, Bedstraw (bedstraw; [5]): 0 | Plant response rating, Bedstraw (bedstraw; [6]): 0 | Plant response rating, Bedstraw (bedstraw; [7]): 0 | Bedstraw plant response rating (0 to 10 scale) (bedstraw; Preemergence, Rate 125 g/ha): 0 | Bedstraw plant response rating (bedstraw; Preemergence, Rate 250 g/ha): 0 | Bedstraw plant response rating (bedstraw; Preemergence, Rate 500 g/ha): 0 | Bedstraw plant response rating (bedstraw; Rate 62 g/ha, Postemergence): 0 | Plant response rating, Bedstraw (bedstraw; [8]): 0
